Several values for one entry are separate records, joined by “and”; a condition that tells them apart may be missing. Identical values can stand only once. Inconclusive results and toxic doses are left out.
Test system: L1210 leukemia ip in BDF1 mice, survival T/C
Test: NCI In Vivo Anticancer Drug Screen. Data for tumor model L1210 Leukemia (intraperitoneal) in B6D2F1 (BDF1) mice
Conditions: higher = longer survival
Procedure, shortened: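 Read-out is survival time, reported as the treated-group measurement over the vehicle-control measurement.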

NC(=S)N/N=C/c1ccc(O)cn1
T/C (endpoint: mean survival time, dose: 200.0 mg/kg/injection, schedule: Q## X008 (oral), vehicle: other): 111 % of control
T/C (endpoint: mean survival time, dose: 200.0 mg/kg/injection, schedule: Q## X016 (oral), vehicle: other): 106 % of control
T/C (endpoint: mean survival time, dose: 200.0 mg/kg/injection, schedule: Q## X024 (oral), vehicle: other): 102 % of control
T/C (endpoint: mean survival time, dose: 280.0 mg/kg/injection, schedule: Q01DX001 (ip), vehicle: saline with Tween-80): 118 % of control and 119 % of control
T/C (endpoint: mean survival time, dose: 300.0 mg/kg/injection, schedule: Q01DX001 (ip), vehicle: alkali diluted with saline): 108 % of control
T/C (endpoint: mean survival time, dose: 300.0 mg/kg/injection, schedule: Q01DX009 (ip), vehicle: saline with Tween-80): 107 % of control
T/C (endpoint: mean survival time, dose: 300.0 mg/kg/injection, schedule: Q08DX002 (ip), vehicle: alkali diluted with saline): 105 % of control
T/C (endpoint: mean survival time, dose: 400.0 mg/kg/injection, schedule: Q01DX001 (ip), vehicle: saline): 109 % of control
T/C (endpoint: mean survival time, dose: 400.0 mg/kg/injection, schedule: Q01DX001 (oral), vehicle: other): 105 % of control
T/C (endpoint: mean survival time, dose: 400.0 mg/kg/injection, schedule: Q01DX009 (oral), vehicle: carboxymethylcellulose (CMC)): 153 % of control
T/C (endpoint: mean survival time, dose: 400.0 mg/kg/injection, schedule: Q01DX009 (oral), vehicle: other): 156 % of control
T/C (endpoint: mean survival time, dose: 400.0 mg/kg/injection, schedule: Q01DX015 (ip), vehicle: carboxymethylcellulose (CMC)): 103 % of control
T/C (endpoint: mean survival time, dose: 400.0 mg/kg/injection, schedule: Q03HX024 (ip), vehicle: clinical formulation): 98 % of control
T/C (endpoint: mean survival time, dose: 400.0 mg/kg/injection, schedule: Q## X002 (oral), vehicle: other): 105 % of control
T/C (endpoint: mean survival time, dose: 400.0 mg/kg/injection, schedule: Q## X003 (ip), vehicle: other): 150 % of control
T/C (endpoint: mean survival time, dose: 400.0 mg/kg/injection, schedule: Q## X003 (oral), vehicle: other): 116 % of control
T/C (endpoint: mean survival time, dose: 400.0 mg/kg/injection, schedule: Q## X008 (oral), vehicle: other): 110 % of control
T/C (endpoint: mean survival time, dose: 400.0 mg/kg/injection, schedule: Q## X016 (oral), vehicle: other): 120 % of control
T/C (endpoint: mean survival time, dose: 400.0 mg/kg/injection, schedule: Q## X024 (oral), vehicle: other): 122 % of control
T/C (endpoint: mean survival time, dose: 427.0 mg/kg/injection, schedule: Q01DX001 (ip), vehicle: saline with Tween-80): 121 % of control and 122 % of control
T/C (endpoint: mean survival time, dose: 600.0 mg/kg/injection, schedule: Q01DX001 (ip), vehicle: alkali diluted with saline): 108 % of control
T/C (endpoint: mean survival time, dose: 600.0 mg/kg/injection, schedule: Q01DX005 (ip), vehicle: other): 97 % of control
T/C (endpoint: mean survival time, dose: 600.0 mg/kg/injection, schedule: Q01DX009 (ip), vehicle: other): 108 % of control
T/C (endpoint: mean survival time, dose: 600.0 mg/kg/injection, schedule: Q08DX002 (ip), vehicle: alkali diluted with saline): 105 % of control
T/C (endpoint: mean survival time, dose: 800.0 mg/kg/injection, schedule: Q01DX001 (oral), vehicle: other): 106 % of control
T/C (endpoint: mean survival time, dose: 800.0 mg/kg/injection, schedule: Q## X002 (oral), vehicle: other): 115 % of control
T/C (endpoint: mean survival time, dose: 800.0 mg/kg/injection, schedule: Q## X003 (oral), vehicle: other): 107 % of control
T/C (endpoint: mean survival time, dose: 800.0 mg/kg/injection, schedule: Q## X008 (oral), vehicle: other): 123 % of control
T/C (endpoint: mean survival time, dose: 800.0 mg/kg/injection, schedule: Q## X024 (oral), vehicle: other): 155 % of control
T/C (endpoint: mean survival time, dose: 833.0 mg/kg/injection, schedule: Q01DX001 (ip), vehicle: saline): 153 % of control
T/C (endpoint: mean survival time, dose: 1200.0 mg/kg/injection, schedule: Q01DX001 (ip), vehicle: other): 158 % of control
T/C (endpoint: mean survival time, dose: 1388.0 mg/kg/injection, schedule: Q01DX001 (ip), vehicle: saline): 157 % of control
T/C (endpoint: mean survival time, dose: 1600.0 mg/kg/injection, schedule: Q## X024 (ip), vehicle: other): 104 % of control
T/C (endpoint: mean survival time, dose: 2400.0 mg/kg/injection, schedule: Q01DX001 (ip), vehicle: saline): 150 % of control and 152 % of control
T/C (endpoint: mean survival time, dose: 2400.0 mg/kg/injection, schedule: Q## X016 (ip), vehicle: other): 100 % of control
T/C (endpoint: median survival time, dose: 37.5 mg/kg/injection, schedule: Q01DX009 (ip), vehicle: water): 155 % of control and 157 % of control
T/C (endpoint: median survival time, dose: 50.0 mg/kg/injection, schedule: Q01DX009 (ip), vehicle: other): 150 % of control
T/C (endpoint: median survival time, dose: 100.0 mg/kg/injection, schedule: Q04DX003 (ip), vehicle: other): 105 % of control
T/C (endpoint: median survival time, dose: 100.0 mg/kg/injection, schedule: Q04DX003 (sc), vehicle: other): 100 % of control
T/C (endpoint: median survival time, dose: 150.0 mg/kg/injection, schedule: Q01DX009 (ip), vehicle: water): 122 % of control and 124 % of control
T/C (endpoint: median survival time, dose: 200.0 mg/kg/injection, schedule: Q04DX003 (ip), vehicle: other): 120 % of control
T/C (endpoint: median survival time, dose: 300.0 mg/kg/injection, schedule: Q01DX009 (ip), vehicle: water): 105 % of control and 106 % of control
T/C (endpoint: median survival time, dose: 400.0 mg/kg/injection, schedule: Q04DX003 (ip), vehicle: other): 100 % of control
T/C (endpoint: median survival time, dose: 400.0 mg/kg/injection, schedule: Q04DX003 (sc), vehicle: other): 120 % of control
T/C (endpoint: median survival time, dose: 500.0 mg/kg/injection, schedule: Q01DX001 (ip), vehicle: saline): 150 % of control
T/C (endpoint: median survival time, dose: 1388.0 mg/kg/injection, schedule: Q01DX001 (ip), vehicle: saline): 157 % of control

Source: PubChem BioAssay AID248 (DTP/NCI, 2004)
